# pEC50: −log10 of the molar value.
# Biological target: T1, human M1 receptor (hCHRM1) (Homo sapiens, UniProt P11229)
# T1 construct: expressed in transfected cells; host or cells: CHO-K1
# T1 sequence (P11229 1-460): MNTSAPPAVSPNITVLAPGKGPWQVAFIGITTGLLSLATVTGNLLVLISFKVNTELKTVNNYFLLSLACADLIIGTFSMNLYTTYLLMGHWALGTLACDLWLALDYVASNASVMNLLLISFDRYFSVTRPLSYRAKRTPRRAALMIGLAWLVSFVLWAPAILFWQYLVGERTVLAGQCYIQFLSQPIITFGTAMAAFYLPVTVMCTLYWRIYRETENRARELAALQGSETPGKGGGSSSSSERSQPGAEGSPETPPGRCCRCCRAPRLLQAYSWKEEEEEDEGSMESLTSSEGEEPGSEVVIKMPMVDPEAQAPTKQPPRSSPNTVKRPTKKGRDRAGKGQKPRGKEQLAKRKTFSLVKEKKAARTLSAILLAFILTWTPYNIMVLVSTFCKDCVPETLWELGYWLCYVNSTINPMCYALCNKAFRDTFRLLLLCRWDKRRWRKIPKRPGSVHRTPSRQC
# Assay: Measurement of M1 receptor positive allosteric modulator (M1PAM) activity, calcium fluorescence (FLIPRtetra) in CHO-K1 cells in the presence of acetylcholine at EC20
# Type: cell-based
# Conditions: in the presence of acetylcholine at EC20 (final 0.6 nM), CHO-K1 cells expressing hCHRM1; for pEC50: inflection point of M1PAM activity, read-out: IP value; for activity (%) at 10 μM: test compound 10 μM
# Summary of the method: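 PAM activity was measured as calcium flux by FLIPRtetra over 1 min after co-addition of compound and EC20 acetylcholine (final 0.6 nM) to Fluo-4-loaded hCHRM1 CHO-K1 cells. The response was scaled between DMSO (0%) and 1 μM acetylcholine (100%), and the inflection point of the concentration curve gives the IP value.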
pEC50,activity (%) at 10 μM [%],SMILES
7.92,93,"NC(=O)c1ccc(CN2Cc3ccnc(Oc4ccc(CC(F)(F)F)cc4F)c3C2=O)cc1 [Example 458, 4-((4-(2-fluoro-4-(2,2,2-trifluoroethyl)phenoxy)-3-oxo-1,3-dihydro-2H-pyrrolo[3,4-c]pyridin-2-yl)methyl)benzamide]"
7.49,93,"NC(=O)c1ccc(CN2Cc3ccnc(Oc4ccc(CC(F)(F)F)cc4F)c3C2=O)cc1F [Example 459, 2-fluoro-4-((4-(2-fluoro-4-(2,2,2-trifluoroethyl)phenoxy)-3-oxo-1,3-dihydro-2H-pyrrolo[3,4-c]pyridin-2-yl)methyl)benzamide]"
7.77,96,"NC(=O)c1ccc(CN2Cc3cccc(Oc4ccc(C(F)(F)F)cc4F)c3C2=O)cc1 [Example 460, 4-((7-(2-fluoro-4-(trifluoromethyl)phenoxy)-1-oxo-1,3-dihydro-2H-isoindol-2-yl)methyl)benzamide]"
7.30,95,"NC(=O)c1ccc(CN2Cc3cccc(Oc4ccc(C(F)(F)F)cc4F)c3C2=O)cc1F [Example 461, 2-fluoro-4-((7-(2-fluoro-4-(trifluoromethyl)phenoxy)-1-oxo-1,3-dihydro-2H-isoindol-2-yl)methyl)benzamide]"

# Source: patent US9777005B2 (Takeda Pharmaceutical Company Limited, priority 2012, dated 2017)
